One block for each molecule: values may come before it.
Experiments:
[1] = molecular target: T1, recombinant human alpha-synuclein (ASN) aggregate (Homo sapiens, UniProt P37840); test: Fluorescence excitation and emission spectra of dye in the presence of aggregated alpha-synuclein; type: binding; settings: for In the presence of aggregate: Emission wavelength / In the presence of aggregate: Excitation wavelength: 1 μM aggregated ASN, 50 mM Tris-HCl, pH 7.8, 10 μM dye
T1 construct: purchased Sigma-Aldrich
Protocol: (§1) Fluorescent readings were carried out in 50 mM Tris-HCl, pH 7.8 using 10 μM dye. […] Fluorescence excitation and emission spectra were collected on a Cary Eclipse fluorescence spectrophotometer (Varian, Australia). Fluorescence spectra were measured with excitation and emission slit widths set to 5 nm, and at a constant PMT voltage. Spectroscopic measurements were performed in standard quartz cells. All measurements were made at the respective excitation maxima of each dye. All measurements were carried out at room temperature.

[2] = Fluorescence excitation and emission spectra of dye freely dissolved in buffer; type: physicochemical; settings: 50 mM Tris-HCl, pH 7.8, 10 μM dye, room temperature
Protocol: as §1

[3] = tested on: goat-anti-mouse IgG aggregate; test: Fluorescence enhancement (aggregate/native IgG) in the presence of excipients; type: binding; settings: for Fluorescence enhancement (aggregate/native IgG): 2.8 μM IgG, 0.625 μM dye; for Fluorescence enhancement (aggregate/native IgG), Average: Average over all excipient conditions
Protocol: IgG aggregate was prepared by adjusting 5.83 mg/ml of purified goat-anti-mouse IgG (H&L, Pel Freez, Rogers, Ark.) to pH 2.7 using HCl and incubating at 22° C. for 24 hours. The assay was performed using 2.8 μM IgG, either native or aggregated, and a dye concentration of 0.625 μM. The protein and dye were mixed together for 15 minutes at 22° C., then this was further incubated in the presence of the excipients shown in the table. The fluorescence intensity of S-25, Tol3 and Y2150 were determined with a FLUOstar OPTIMA plate reader (BMG LABTECH) at excitation wavelength of 550 nm and emission wavelength of 610 nm; while the fluorescence intensity for Thioflavin-T was determined using a SpectraMAX GeminiXS (Molecular device, with Softmax Pro 7.0) using an excitation wavelength of 435 nm and emission wavelength of 495 nm. The fluorescence enhancement (aggregate/native IgG) is shown.

Goat anti-mouse IgG = test: High-throughput protein formulation optimization: effect of excipients on IgG aggregation at 50° C., S-25/Tol3 readout; type: biochemical; settings: 50° C. for 6 hours
Protocol: (A). Goat anti-mouse IgG was diluted in sodium acetate, pH 4.5, then mixed with the excipients shown in FIG. 10 A giving a final concentration of 400 mM sodium acetate, 18 μM IgG and the excipient concentration shown in the Table 2. This mixture was heated to 50° C. for 6 hours. At this time the protein solution was diluted two-fold to give a final concentration of 50 mM Histidine buffer, originally pH 7, 2.5 μM S-25, 2.5 μM Tol3 and 9 μM IgG. After 30 minutes of incubation on the shaker, the fluorescence intensity was recorded on the plate reader (FLUOstar Optima). The fluorescence intensity from each individual excipient was then compared with that without any excipient (Value set as 1.0) as shown on the top of the corresponding excipient bar in FIG. 12 A.
(B). In the control plate, the IgG was added to the plate, at the same volume and concentration given above (Example 17A) in 400 mM Sodium Acetate. This mixture was heated to 50° C. for 6 hours, as described above. After 6 hours, the excipient was added followed by S-25 and Tol3 to give all the final concentrations as shown in Example 17A. Similar to the sample plate, the fluorescence intensity from individual excipients was also compared with that from water without any excipient (Values set as 1.0) to obtain the relative fluorescent intensity as shown on the top of the corresponding excipient bar in FIG. 12B.
(C). […]

Molecule: CN(C)c1ccc(/C=C/c2cc[n+](Cc3ccccc3C[n+]3ccc(/C=C/c4ccc(N(C)C)cc4)cc3)cc2)cc1.[Br-].[Br-] [Dye S43]
In the presence of aggregate: Emission wavelength [1]: 623 nm
In the presence of aggregate: Excitation wavelength [1]: 550 nm

Molecule: OC[C@H]1O[C@H](O[C@H]2O[C@H](CO)[C@@H](O)[C@H](O)[C@H]2O)[C@H](O)[C@@H](O)[C@@H]1O [Trehalose]
Effect on aggregation of IgG (fluorescence ratio sample plate / control plate) (Goat anti-mouse IgG; 100 mM Trehalose): inhibit or slow down aggregation of IgG

Molecule: CCN(CC)c1ccc(/C=C/c2cc[n+](CCCCCCCCCC[n+]3ccc(/C=C/c4ccc(N(CC)CC)cc4)c(C)c3)cc2C)cc1 [Yat 2150]
In the presence of aggregate: Emission wavelength [1]: 610 nm
In the presence of aggregate: Excitation wavelength [1]: 515 nm
Dye freely dissolved in buffer: Emission wavelength [2]: 612 nm
Dye freely dissolved in buffer: Excitation wavelength [2]: 485 nm
Fluorescence enhancement (aggregate/native IgG) ([3]; Ammonium Sulfate, 10 mM): 12.4 fold
Fluorescence enhancement (aggregate/native IgG) ([3]; Ammonium Sulfate, 100 mM): 12.5 fold
Fluorescence enhancement (aggregate/native IgG) ([3]; Ammonium Sulfate, 300 mM): 14.6 fold
Fluorescence enhancement (aggregate/native IgG) ([3]; Arginine, 200 mM): 14.4 fold
Fluorescence enhancement (aggregate/native IgG) ([3]; Arginine, 500 mM): 14.3 fold
Fluorescence enhancement (aggregate/native IgG) ([3]; Ascoric Acid, 1 mM): 14.5 fold
Fluorescence enhancement (aggregate/native IgG), Average [3]: 14.8 fold
Fluorescence enhancement (aggregate/native IgG) ([3]; Calcium Chloride, 10 mM): 12.4 fold
Fluorescence enhancement (aggregate/native IgG) ([3]; Calcium Chloride, 50 mM): 14.7 fold
Fluorescence enhancement (aggregate/native IgG) ([3]; Calcium Chloride, 200 mM): 13.9 fold
Fluorescence enhancement (aggregate/native IgG) ([3]; DTT, 1 mM): 11.3 fold
Fluorescence enhancement (aggregate/native IgG) ([3]; Glycine, 0.5%): 12.5 fold
Fluorescence enhancement (aggregate/native IgG) ([3]; Glycine, 2%): 19.0 fold
Fluorescence enhancement (aggregate/native IgG) ([3]; Lactose, 100 mM): 17.5 fold
Fluorescence enhancement (aggregate/native IgG) ([3]; Lactose, 300 mM): 31.0 fold
Fluorescence enhancement (aggregate/native IgG) ([3]; Mannitol, 100 mM): 11.2 fold
Fluorescence enhancement (aggregate/native IgG) ([3]; Mannitol, 300 mM): 13.8 fold
Fluorescence enhancement (aggregate/native IgG) ([3]; Mannitol, 600 mM): 17.7 fold
Fluorescence enhancement (aggregate/native IgG) ([3]; Sodium Chloride, 10 mM): 14.4 fold
Fluorescence enhancement (aggregate/native IgG) ([3]; Sodium Chloride, 100 mM): 11.3 fold
Fluorescence enhancement (aggregate/native IgG) ([3]; Sodium Chloride, 1000 mM): 15.0 fold
Fluorescence enhancement (aggregate/native IgG) ([3]; Sorbitol, 100 mM): 17.3 fold
Fluorescence enhancement (aggregate/native IgG) ([3]; Sorbitol, 300 mM): 15.6 fold
Fluorescence enhancement (aggregate/native IgG) ([3]; Sorbitol, 600 mM): 18.7 fold
Fluorescence enhancement (aggregate/native IgG) ([3]; Trehalose, 100 mM): 14.0 fold
Fluorescence enhancement (aggregate/native IgG) ([3]; Trehalose, 300 mM): 19.4 fold
Fluorescence enhancement (aggregate/native IgG) ([3]; Trehalose, 600 mM): 18.9 fold
Fluorescence enhancement (aggregate/native IgG) ([3]; Tween 20, 0.01%): 5.5 fold
Fluorescence enhancement (aggregate/native IgG) ([3]; Tween 20, 0.2%): 2.6 fold
Fluorescence enhancement (aggregate/native IgG) ([3]; X100, 0.01%): 4.1 fold
Fluorescence enhancement (aggregate/native IgG) ([3]; X100, 0.2%): 2.6 fold
Fluorescence enhancement (aggregate/native IgG) ([3]; X100, 1%): 1.7 fold

Molecule: Triton X-100
Effect on aggregation of IgG (fluorescence ratio sample plate / control plate) (Goat anti-mouse IgG; 0.2% Triton X-100): induce aggregation of IgG

Now from value to molecule, other results behind:

In the presence of aggregate: Emission wavelength [1]: 480 nm
In the presence of aggregate: Excitation wavelength [1]: 447 nm
Stokes shift ([1]; as seen in Table 1): 23 nm
Dye freely dissolved in buffer: Emission wavelength [2]: 472 nm
Dye freely dissolved in buffer: Excitation wavelength [2]: 400 nm
Molecule: Cc1ccc2c(c1)sc(-c1ccc(N(C)C)cc1)[n+]2C.[Cl-] [Thioflavin-T, Thioflavin T, reference compound]
Fluorescence enhancement (aggregate/native IgG) ([3]; Ammonium Sulfate, 10 mM): 2.8 fold
Fluorescence enhancement (aggregate/native IgG) ([3]; Ammonium Sulfate, 100 mM): 2.6 fold
Fluorescence enhancement (aggregate/native IgG) ([3]; Ammonium Sulfate, 300 mM): 1.4 fold
Fluorescence enhancement (aggregate/native IgG) ([3]; Arginine, 200 mM): 1.4 fold
Fluorescence enhancement (aggregate/native IgG) ([3]; Arginine, 500 mM): 2.0 fold
Fluorescence enhancement (aggregate/native IgG) ([3]; Ascoric Acid, 1 mM): 1.5 fold
Fluorescence enhancement (aggregate/native IgG), Average [3]: 2.9 fold
Fluorescence enhancement (aggregate/native IgG) ([3]; Calcium Chloride, 10 mM): 3.1 fold
Fluorescence enhancement (aggregate/native IgG) ([3]; Calcium Chloride, 50 mM): 1.5 fold
Fluorescence enhancement (aggregate/native IgG) ([3]; Calcium Chloride, 200 mM): 1.7 fold
Fluorescence enhancement (aggregate/native IgG) ([3]; DTT, 1 mM): 1.6 fold
Fluorescence enhancement (aggregate/native IgG) ([3]; Glycine, 0.5%): 3.1 fold
Fluorescence enhancement (aggregate/native IgG) ([3]; Glycine, 2%): 3.2 fold
Fluorescence enhancement (aggregate/native IgG) ([3]; Lactose, 100 mM): 1.2 fold
Fluorescence enhancement (aggregate/native IgG) ([3]; Lactose, 300 mM): 1.4 fold
Fluorescence enhancement (aggregate/native IgG) ([3]; Mannitol, 100 mM): 3.1 fold
Fluorescence enhancement (aggregate/native IgG) ([3]; Mannitol, 300 mM): 3.7 fold
Fluorescence enhancement (aggregate/native IgG) ([3]; Mannitol, 600 mM): 1.8 fold
Fluorescence enhancement (aggregate/native IgG) ([3]; Sodium Chloride, 10 mM): 1.6 fold
Fluorescence enhancement (aggregate/native IgG) ([3]; Sodium Chloride, 100 mM): 1.3 fold
Fluorescence enhancement (aggregate/native IgG) ([3]; Sodium Chloride, 1000 mM): 2.7 fold
Fluorescence enhancement (aggregate/native IgG) ([3]; Sorbitol, 100 mM): 3.0 fold
Fluorescence enhancement (aggregate/native IgG) ([3]; Sorbitol, 300 mM): 1.9 fold
Fluorescence enhancement (aggregate/native IgG) ([3]; Sorbitol, 600 mM): 3.6 fold
Fluorescence enhancement (aggregate/native IgG) ([3]; Trehalose, 100 mM): 2.2 fold
Fluorescence enhancement (aggregate/native IgG) ([3]; Trehalose, 300 mM): 0.2 fold
Fluorescence enhancement (aggregate/native IgG) ([3]; Trehalose, 600 mM): 4.8 fold
Fluorescence enhancement (aggregate/native IgG) ([3]; Tween 20, 0.01%): 4.6 fold
Fluorescence enhancement (aggregate/native IgG) ([3]; Tween 20, 0.2%): 2.6 fold
Fluorescence enhancement (aggregate/native IgG) ([3]; X100, 0.01%): 5.3 fold
Fluorescence enhancement (aggregate/native IgG) ([3]; X100, 0.2%): 6.6 fold
Fluorescence enhancement (aggregate/native IgG) ([3]; X100, 1%): 3.4 fold

In the presence of aggregate: Emission wavelength [1]: 613 nm
In the presence of aggregate: Excitation wavelength [1]: 535 nm
Dye freely dissolved in buffer: Emission wavelength [2]: 620 nm
Dye freely dissolved in buffer: Excitation wavelength [2]: 500 nm
Molecule: CCN(CC)c1ccc(/C=C/c2cc[n+](CCCC[n+]3ccc(/C=C/c4ccc(N(CC)CC)cc4)cc3)cc2)cc1.[I-].[I-] [Yat 2134]

In the presence of aggregate: Emission wavelength [1]: 625 nm
In the presence of aggregate: Excitation wavelength [1]: 553 nm
Molecule: CCN(CC)c1ccc(/C=C/c2cc[n+](Cc3ccccc3C[n+]3ccc(/C=C/c4ccc(N(CC)CC)cc4)cc3)cc2)cc1.[Br-].[Br-] [Yat 2148]

In the presence of aggregate: Emission wavelength [1]: 617 nm
In the presence of aggregate: Excitation wavelength [1]: 534 nm
Dye freely dissolved in buffer: Emission wavelength [2]: 614 nm
Dye freely dissolved in buffer: Excitation wavelength [2]: 502 nm
Molecule: CCN(CC)c1ccc(/C=C/c2cc[n+](CCOCC[n+]3ccc(/C=C/c4ccc(N(CC)CC)cc4)cc3)cc2)cc1.[I-].[I-] [Yat 2149]
